In patent publication US9512139B2, “Conformationally constrained, fully synthetic macrocyclic compounds” (POLYPHOR AG, priority 2009, dated 2016):

What was measured:
in vitro = in vitro ADME, human; conditions: human, plasma; for Plasma Stability T½ [min] hum / Plasma Stability 240 min hum [% remain.]: 10 µM; for Plasma Stability 240 min hum [% remain.]: 4 h
[1] = Metabolic stability assay, human microsomes; type: in vitro ADME; conditions: human, microsomes; for Metabolic Stability T½ [min] hum / Metabolic Stability 60 min hum [% remain.]: both, 10 µM; for Metabolic Stability 60 min hum [% remain.]: 1 h; for half-life at 10 µM: both sexes
[2] = Metabolic stability assay, CD-1 mouse microsomes; type: in vitro ADME; conditions: CD-1, mouse, microsomes; for Metabolic Stability T½ [min] mouse / Metabolic Stability 60 min mouse [% remain.]: both, 10 µM; for Metabolic Stability 60 min mouse [% remain.]: 1 h
[3] = Plasma stability assay, rat plasma (values in parentheses); type: in vitro ADME; conditions: value in parentheses
[4] = Metabolic stability assay, rat microsomes (values in parentheses); type: in vitro ADME; conditions: value in parentheses

Row | Plasma Stability T½ [min] hum (in vitro) [min] | Plasma Stability 240 min hum [% remain.] (in vitro) | Metabolic Stability T½ [min] hum [1] [min] | Metabolic Stability 60 min hum [% remain.] [1] [% remain.] | Metabolic Stability T½ [min] mouse [2] [min] | Metabolic Stability 60 min mouse [% remain.] [2] [% remain.] | Plasma Stability 240 min (rat) [% remain.] [3] | Plasma Stability T½ [min] (rat) [3] | Metabolic Stability 60 min (rat) [% remain.] [4] [% remain.] | Metabolic Stability T½ [min] (rat) [4] | half-life at 10 µM [1] [h] | half-life at 10 µM ([2]; both sexes) [h] | half-life at 10 µM ([4]; read-out: Metabolic Stability T½ [min] (rat)) | half-life at 10 µM ([3]; read-out: Plasma Stability T½ [min] (rat)) | half-life at 10 µM (in vitro) [h] | Compound
1 | > 240 | 95 | > 60 | 72 | > 60 | 86 | (100) % remain. | (240) min | 97 | 60 (60) min | – | – | – | – | – | COCCNC(=O)[C@@H]1COCC(=O)N2C[C@@H](N3CCN(C)CC3)C[C@H]2COc2cccc(c2)C(=O)N1C [Ex. 377, (4S,6S,13S)-N-(2-methoxyethyl)-14-methyl-6-(4-methylpiperazino)-9,15-dioxo-2,11-dioxa-8,14-diazatricyclo[14.3.1.0^4,8]icosa-1(20),16,18-triene-13-carboxamide]
2 | > 240 | 57 | > 60 | 61 | > 60 | 94 | (82) % remain. | (240) min | 90 | 60 (60) min | – | – | – | – | – | CN(C)CCNC(=O)[C@@H]1COCC(=O)N2C[C@@H](NC(=O)Cc3ccc4ccccc4c3)C[C@H]2COc2cccc(c2)C(=O)N1C [Ex. 374, (4S,6S,13S)-N-[2-(dimethylamino)ethyl]-14-methyl-6-{[2-(2-naphthyl)acetyl]amino}-9,15-dioxo-2,11-dioxa-8,14-diazatricyclo[14.3.1.0^4,8]icosa-1(20),16,18-triene-13-carboxamide]
3 | > 240 | 85 | > 60 | 100 | > 60 | 80 | (79) % remain. | (240) min | 100 | 60 (60) min | – | – | – | – | – | COCCNC(=O)[C@@H]1COCC(=O)N2C[C@@H](N)C[C@H]2COc2cccc(c2)C(=O)N1C [Ex. 369, (4S,6S,13S)-6-amino-N-(2-methoxyethyl)-14-methyl-9,15-dioxo-2,11-dioxa-8,14-diazatricyclo[14.3.1.0^4,8]icosa-1(20),16,18-triene-13-carboxamide]
4 | > 240 | 55 | – | 12 | – | 39 | (100) % remain. | (240) min | 0 | – | 0.2 | 0.6 | 7 | – | – | CC(C)CN[C@H]1C[C@H]2COc3cccc(c3)C(=O)N(C)[C@H](C(=O)NCc3ccc4ccccc4c3)COCC(=O)N2C1 [Ex. 373, (4S,6S,13S)-6-(isobutylamino)-14-methyl-N-(2-naphthylmethyl)-9,15-dioxo-2,11-dioxa-8,14-diazatricyclo[14.3.1.0^4,8]icosa-1(20),16,18-triene-13-carboxamide]
5 | > 240 | 72 | > 60 | 83 | > 60 | 82 | (100) % remain. | (240) min | 98 | 60 (60) min | – | – | – | – | – | CN1C(=O)c2cccc(c2)OC[C@@H]2C[C@H](N)CN2C(=O)COC[C@H]1C(=O)NCc1ccc2ccccc2c1 [Ex. 368, (4S,6S,13S)-6-amino-14-methyl-N-(2-naphthylmethyl)-9,15-dioxo-2,11-dioxa-8,14-diazatricyclo[14.3.1.0^4,8]icosa-1(20),16,18-triene-13-carboxamide]
6 | > 240 | 70 | > 60 | 98 | > 60 | 100 | (77) % remain. | – | – | – | – | – | – | 210 | – | CN1CCN([C@H]2CCCN(C)C(=O)c3cccc(c3)OC[C@@H]3C[C@H](O)CN3C2=O)CC1 [Ex. 581, (4S,6S,10S)-6-hydroxy-14-methyl-10-(4-methylpiperazino)-2-oxa-8,14-diazatricyclo[14.3.1.0^4,8]icosa-1(20),16,18-triene-9,15-dione]
7 | > 240 | 68 | – | 43 | > 60 | 73 | (100) % remain. | (240) min | 72 | 60 (60) min | 0.767 | – | – | – | – | CN1C(=O)c2cccc(c2)OC[C@@H]2C[C@H](NC(=O)CCc3ccncc3)CN2C(=O)COC[C@H]1C(=O)NCc1ccc2ccccc2c1 [Ex. 372, (4S,6S,13S)-14-methyl-N-(2-naphthylmethyl)-9,15-dioxo-6-{[3-(4-pyridinyl)propanoyl]amino}-2,11-dioxa-8,14-diazatricyclo[14.3.1.0^4,8]icosa-1(20),16,18-triene-13-carboxamide]
8 | > 240 | 70 | > 60 | 100 | – | – | (79) % remain. | (240) min | – | – | – | – | – | – | – | CN1CCC[C@H](N2CCNCC2)C(=O)N2C[C@@H](O)C[C@H]2COc2cccc(c2)C1=O [Ex. 580, (4S,6S,10S)-6-hydroxy-14-methyl-10-piperazino-2-oxa-8,14-diazatricyclo[14.3.1.0^4,8]icosa-1(20),16,18-triene-9,15-dione]
9 | > 240 | 90 | > 60 | 79 | > 60 | 91 | (89) % remain. | (240) min | 78 | 60 (60) min | – | – | – | – | – | COCCNC(=O)[C@@H]1COCC(=O)N2C[C@@H](NCC(C)C)C[C@H]2COc2cccc(c2)C(=O)N1C [Ex. 376, (4S,6S,13S)-6-(isobutylamino)-N-(2-methoxyethyl)-14-methyl-9,15-dioxo-2,11-dioxa-8,14-diazatricyclo[14.3.1.0^4,8]icosa-1(20),16,18-triene-13-carboxamide]
10 | – | 48 | > 60 | 65 | > 60 | 87 | (100) % remain. | (240) min | 72 | 60 (60) min | – | – | – | – | 4 | COCCNC(=O)[C@@H]1COCC(=O)N2C[C@@H](N3CCN(Cc4ccccc4)CC3)C[C@H]2COc2cccc(c2)C(=O)N1C [Ex. 378, (4S,6S,13S)-6-(4-benzylpiperazino)-N-(2-methoxyethyl)-14-methyl-9,15-dioxo-2,11-dioxa-8,14-diazatricyclo[14.3.1.0^4,8]icosa-1(20),16,18-triene-13-carboxamide]
